Test results taken from patent US11739252B2, “Microbecidal composition and a method for mitigating internal microbiological influenced corrosion in petroleum transporting pipelines” (Indian Oil Corporation Limited, priority 2020, dated 2023).

Test system: MIC causing microbes
Assay: Synergistic effect of components: antimicrobial screening against MIC causing microbes and their mediated corrosion
Type: cell-based
Conditions: dosed at 10000 ppm
Method: To test the MIC activity, the microbecidal composition was subjected to antimicrobial screening against MIC causing microbes and their mediated corrosion. 10 gram of muck sample from a pipeline having MIC was used as inoculum. The growth of the microbes was followed by visual observation as well as by counting the CFU/ml on respective media. The growth was compared with control i.e., without microbecidal composition. Further, individual components of the microbecidal composition were evaluated to evaluate the synergistic effect of the composition (Table 1). As observed from the Table-1 below, when the individual components of the microbecidal composition was used, no significant MIC reduction was observed.

Structure (SMILES): CCO [Alcohol]
- Percentage (%) reduction in MIC (base corrosion rate 12 mpy): 10%
- After dosing of Microbecidal composition (mpy) (base corrosion rate without composition 12 mpy, muck sample inoculum): 10.75 mpy
